As a reminder, the IC50 is the concentration that inhibits the measured activity by half.

We go through 21 molecules from US12037345B2, “Heterobicyclic compounds for inhibiting the activity of SHP2” (TAIHO PHARMACEUTICAL CO., LTD., priority 2018, dated 2024).

One assay deals with SHP2 (Homo sapiens (Human), UniProt Q06124). The assay is described as follows: SHP2 Biochemical Assay (DiFMUP conversion, pIRS1-activated). In outline:
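Human SHP2 (10 pM) pre-incubated 30 min with compound and […] pIRS1 activating peptide, then 50 μM DiFMUP added; buffer 25 mM Bis-Tris propane pH 7.0, 150 mM NaCl, 5% DMSO. Fluorescence rate (ex 360/em 450 nm) over 30 min; IC50 by four-parameter fit, averaged across experiments.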

Assay [1] relates to pERK (phospho-p44/42 ERK) in HCC827 cells. Description: Cellular pERK Inhibition Assay, Method A (In-Cell Western). The format is cell-based. The note with it: Homo sapiens. The essentials: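 HCC827 cells in RPMI/10% FBS were treated with compounds in serum-free medium (0.2% DMSO final) at 37 °C for the indicated time, in quadruplicate. Fixed cells were immunostained for phospho-p44/42 ERK and read by infrared imaging. Blank-subtracted signal was expressed as % of DMSO control; IC50 from four-parameter logistic fit, averaged across experiments.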

[2] abbreviates: Table 19, head prints unit as "-M".
Where [3] appears, read: Table 19, head prints unit as "-M", read-out: pERK (IC50) Method A.
Where [4] appears, read: Table 20, read-out: pERK (IC50, μM) Method A.

Molecules are shown by their SMILES. Structures can show the parent of a compound that is named as a salt. Where two headings read alike, the source gives them in different places.

Sequence of SHP2 (Q06124 whole entry): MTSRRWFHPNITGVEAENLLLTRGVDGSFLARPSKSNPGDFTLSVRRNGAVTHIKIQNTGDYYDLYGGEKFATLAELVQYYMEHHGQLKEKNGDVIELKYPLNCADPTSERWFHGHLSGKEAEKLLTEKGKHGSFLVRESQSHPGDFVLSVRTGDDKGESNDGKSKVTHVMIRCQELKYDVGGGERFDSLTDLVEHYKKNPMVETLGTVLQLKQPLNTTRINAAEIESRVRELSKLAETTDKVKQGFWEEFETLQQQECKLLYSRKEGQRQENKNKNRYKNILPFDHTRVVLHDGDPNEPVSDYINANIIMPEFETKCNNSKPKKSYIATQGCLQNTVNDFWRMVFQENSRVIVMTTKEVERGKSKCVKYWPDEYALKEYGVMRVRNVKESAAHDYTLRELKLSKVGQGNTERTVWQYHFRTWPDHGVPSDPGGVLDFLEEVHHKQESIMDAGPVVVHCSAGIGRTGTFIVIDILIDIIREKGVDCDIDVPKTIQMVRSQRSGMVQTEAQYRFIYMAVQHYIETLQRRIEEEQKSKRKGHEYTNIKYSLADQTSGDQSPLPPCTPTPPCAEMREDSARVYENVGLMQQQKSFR

For the molecule `CN[C@@H]1C[C@@H]2CC[C@H]1N2c1nc2[nH]nc(-c3ccc4ncsc4c3Cl)c2c(=O)n1C` [Example 123, 3-(7-chlorobenzo[d]thiazol-6-yl)-5-methyl-6-((1R,2R,4S)-2-(methylamino)-7-azabicyclo[2.2.1]heptan-7-yl)-1,5-dihydro-4H-pyrazolo[3,4-d]pyrimidin-4-one], the IC50 was 18 nM on SHP2 (setting [2]) and 0.17 µM in assay [1] (setting [3]).

`CN[C@@H]1C[C@@H]2CC[C@H]1N2c1nc2[nH]nc(-c3ccc4nc(C)sc4c3Cl)c2c(=O)n1C` [Example 124, 3-(7-chloro-2-methylbenzo[d]thiazol-6-yl)-5-methyl-6-((1R,2R,4S)-2-(methylamino)-7-azabicyclo[2.2.1]heptan-7-yl)-1,5-dihydro-4H-pyrazolo[3,4-d]pyrimidin-4-one]: the IC50 against SHP2 (setting [2]) stood at 19 nM; in assay [1] (setting [3]) it was 0.43 µM.

As for `CCn1nc2ccc(-c3n[nH]c4nc(N5[C@H]6CC[C@@H]5[C@H](N)C6)n(C)c(=O)c34)c(Cl)c2c1Cl` [Example 127, 6-((1R,2R,4S)-2-amino-7-azabicyclo[2.2.1]heptan-7-yl)-3-(3,4-dichloro-2-ethyl-2H-indazol-5-yl)-5-methyl-1,5-dihydro-4H-pyrazolo[3,4-d]pyrimidin-4-one], the IC50 at SHP2 (setting [2]) was found to be 3.7 nM; in assay [1] (setting [3]) it was 0.063 µM.

`CCn1nc2ccc(-c3n[nH]c4nc(N5[C@H]6CC[C@@H]5[C@H](NC)C6)n(C)c(=O)c34)c(Cl)c2c1Cl` [Example 128, 3-(3,4-dichloro-2-ethyl-2H-indazol-5-yl)-5-methyl-6-((1R,2R,4S)-2-(methylamino)-7-azabicyclo[2.2.1]heptan-7-yl)-1,5-dihydro-4H-pyrazolo[3,4-d]pyrimidin-4-one]: the IC50 against SHP2 (setting [2]) amounted to 11 nM; in assay [1] (setting [3]), 0.16 µM.

In the case of `Cn1cc2c(Cl)c(-c3c[nH]c4nc(N5[C@H]6CC[C@@H]5[C@@H](F)[C@H](N)C6)n(C)c(=O)c34)ccc2n1` [Example 129, 2-((1R,2S,3R,5S)-3-amino-2-fluoro-8-azabicyclo[3.2.1]octan-8-yl)-5-(4-chloro-2-methyl-2H-indazol-5-yl)-3-methyl-3,7-dihydro-4H-pyrrolo[2,3-d]pyrimidin-4-one], the IC50 against SHP2 (setting [2]) is 69 nM; in assay [1] (setting [3]), 0.98 µM.

Regarding `Cn1cc2c(Cl)c(-c3c[nH]c4nc(N5[C@@H]6CC[C@H]5[C@H](F)[C@@H](N)C6)n(C)c(=O)c34)ccc2n1` [Example 130, 2-((1S,2R,3S,5R)-3-amino-2-fluoro-8-azabicyclo[3.2.1]octan-8-yl)-5-(4-chloro-2-methyl-2H-indazol-5-yl)-3-methyl-3,7-dihydro-4H-pyrrolo[2,3-d]pyrimidin-4-one], the figures for the IC50 (against SHP2 (setting [2]); in assay [1] (setting [3])) were 63 nM and 0.8 µM, respectively.

Take `Cn1cc2c(Cl)c(-c3c[nH]c4nc(N5[C@H]6CC[C@@H]5[C@H](F)[C@H](N)C6)n(C)c(=O)c34)ccc2n1` [Example 131, 2-((1R,2R,3R,5S)-3-amino-2-fluoro-8-azabicyclo[3.2.1]octan-8-yl)-5-(4-chloro-2-methyl-2H-indazol-5-yl)-3-methyl-3,7-dihydro-4H-pyrrolo[2,3-d]pyrimidin-4-one]: the figures for the IC50 (at SHP2 (setting [2]); in assay [1] (setting [3])) were 28 nM and 0.46 µM, respectively.

Consider `Cn1cc2c(Cl)c(-c3c[nH]c4nc(N5[C@@H]6CC[C@H]5[C@@H](F)[C@@H](N)C6)n(C)c(=O)c34)ccc2n1` [Example 132, 2-((1S,2S,3S,5R)-3-amino-2-fluoro-8-azabicyclo[3.2.1]octan-8-yl)-5-(4-chloro-2-methyl-2H-indazol-5-yl)-3-methyl-3,7-dihydro-4H-pyrrolo[2,3-d]pyrimidin-4-one], for which the figures for the IC50 (at SHP2 (setting [2]); in assay [1] (setting [3])) were 15 nM and 0.25 µM, respectively.

`CCn1nc2ccc(-c3c[nH]c4nc(N5[C@H]6CC[C@@H]5[C@H](N)C6)n(C)c(=O)c34)c(Cl)c2c1C#N` [Example 159, 5-(2-((1R,2R,4S)-2-Amino-7-azabicyclo[2.2.1]heptan-7-yl)-3-methyl-4-oxo-4,7-dihydro-3H-pyrrolo[2,3-d]pyrimidin-5-yl)-4-chloro-2-ethyl-2H-indazole-3-carbonitrile]: the results for the IC50 (at SHP2 (setting [2]); in assay [1] (setting [3])) were 3.5 nM and 0.15 µM, respectively.

On to `Cn1nc2ccc(-c3n[nH]c4nc(N5[C@@H]6CC[C@H]5C[C@@H](N)C6)n(C)c(=O)c34)c(Cl)c2c1Cl` [Example 160, 6-(endo-3-amino-8-azabicyclo[3.2.1]octan-8-yl)-3-(3,4-dichloro-2-methyl-2H-indazol-5-yl)-5-methyl-1,5-dihydro-4H-pyrazolo[3,4-d]pyrimidin-4-one, hydrochloride salt], for which the IC50 is 8.5 nM on SHP2 (Table 20) and 0.23 µM in assay [1] (setting [4]).

As to `Cn1nc2ccc(-c3n[nH]c4nc(N5[C@@H]6CC[C@H]5C[C@@](C)(N)C6)n(C)c(=O)c34)c(Cl)c2c1Cl` [Example 161, 6-(endo-3-amino-3-methyl-8-azabicyclo[3.2.1]octan-8-yl)-3-(3,4-dichloro-2-methyl-2H-indazol-5-yl)-5-methyl-1,5-dihydro-4H-pyrazolo[3,4-d]pyrimidin-4-one], the figures for the IC50 (against SHP2 (Table 20); in assay [1] (setting [4])) were 12 nM and 0.26 µM, respectively.

For `Cn1nc2ccc(-c3n[nH]c4nc(N5CC[C@H](N)[C@H](F)C5)n(C)c(=O)c34)c(Cl)c2c1Cl` [Example 162, 6-((3R,4S)-4-amino-3-fluoropiperidin-1-yl)-3-(3,4-dichloro-2-methyl-2H-indazol-5-yl)-5-methyl-1,5-dihydro-1H-pyrazolo[3,4-d]pyrimidin-4-one], the IC50 against SHP2 (Table 20) was determined as 42 nM; in assay [1] (setting [4]) it was 0.81 µM.

Turning to `Cn1nc2ccc(-c3c[nH]c4nc(N5[C@H]6CC[C@@H]5[C@@H](F)[C@@H](N)C6)n(C)c(=O)c34)c(Cl)c2c1Cl` [Example 163, 2-((1R,2S,3S,5S)-3-amino-2-fluoro-8-azabicyclo[3.2.1]octan-8-yl)-5-(3,4-dichloro-2-methyl-2H-indazol-5-yl)-3-methyl-3,7-dihydro-4H-pyrrolo[2,3-d]pyrimidin-4-one], the IC50 worked out at 2 nM at SHP2 (Table 20) and 0.012 µM in assay [1] (setting [4]).

Turning to `CN[C@H]1C[C@H]2CC[C@@H]1N2c1nc2[nH]cc(-c3ccc4nn(C)cc4c3Cl)c2c(=O)n1C` [Example 165, 5-(4-chloro-2-methyl-2H-indazol-5-yl)-3-methyl-2-((1S,2S,4R)-2-(methylamino)-7-azabicyclo[2.2.1]heptan-7-yl)-3,7-dihydro-4H-pyrrolo[2,3-d]pyrimidin-4-one], the IC50 against SHP2 (Table 20) was determined as 84 nM; in assay [1] (setting [4]), 1.4 µM.

In the case of `COc1cnc2ccc(-c3c[nH]c4nc(N5[C@H]6CC[C@@H]5[C@H](N)C6)n(C)c(=O)c34)c(Cl)c2n1` [Example 169, 2-((1R,2R,4S)-2-amino-7-azabicyclo[2.2.1]heptan-7-yl)-5-(5-chloro-3-methoxyquinoxalin-6-yl)-3-methyl-3,7-dihydro-4H-pyrrolo[2,3-d]pyrimidin-4-one], the 50% inhibitory concentration (IC50) against SHP2 (Table 20) turned out to be 3.3 nM; in assay [1] (setting [4]), 0.073 µM.

Take `CN(C)c1cnc2ccc(-c3c[nH]c4nc(N5[C@H]6CC[C@@H]5[C@H](N)C6)n(C)c(=O)c34)c(Cl)c2n1` [Example 170, 2-((1R,2R,4S)-2-amino-7-azabicyclo[2.2.1]heptan-7-yl)-5-(5-chloro-3-(dimethylamino)quinoxalin-6-yl)-3-methyl-3,7-dihydro-4H-pyrrolo[2,3-d]pyrimidin-4-one]: the results for the IC50 (on SHP2 (Table 20); in assay [1] (setting [4])) were 3 nM and 0.016 µM, respectively.

Consider `Cn1nc2ccc(-c3c[nH]c4nc(N5C[C@H]6CC[C@@H]5[C@@H]6N)n(C)c(=O)c34)c(F)c2c1Cl` [Example 174, 2-((1R,4R,7R)-7-amino-2-azabicyclo[2.2.1]heptan-2-yl)-5-(3-chloro-4-fluoro-2-methyl-2H-indazol-5-yl)-3-methyl-3,7-dihydro-4H-pyrrolo[2,3-d]pyrimidin-4-one], for which the IC50 at SHP2 (Table 20) turned out to be 3 nM; in assay [1] (setting [4]), 0.021 µM.

With `Cn1c(N2[C@@H]3CC[C@H]2C[C@@H](N)C3)nc2[nH]cc(-c3ccc4nccnc4c3Cl)c2c1=O` [Example 176, 2-(endo-3-amino-8-azabicyclo[3.2.1]octan-8-yl)-5-(5-chloroquinoxalin-6-yl)-3-methyl-3,7-dihydro-4H-pyrrolo[2,3-d]pyrimidin-4-one], the IC50 against SHP2 (Table 20) amounted to 77 nM; in assay [1] (setting [4]) it was 0.66 µM.

Turning to `CCN[C@@H]1C[C@@H]2CC[C@H]1N2c1nc2[nH]nc(-c3ccc4nn(C)c(Cl)c4c3Cl)c2c(=O)n1C` [Example 177, 3-(3,4-dichloro-2-methyl-2H-indazol-5-yl)-6-((1R,2R,4S)-2-(ethylamino)-7-azabicyclo[2.2.1]heptan-7-yl)-5-methyl-1,5-dihydro-4H-pyrazolo[3,4-d]pyrimidin-4-one], the IC50 was 95 nM on SHP2 (Table 20) and 1.4 µM in assay [1] (setting [4]).

As to `COCCn1cc2c(Cl)c(-c3c[nH]c4nc(N5[C@H]6CC[C@@H]5[C@H](N)C6)n(C)c(=O)c34)ccc2n1` [Example 178, 2-((1R,2R,4S)-2-amino-7-azabicyclo[2.2.1]heptan-7-yl)-5-(4-chloro-2-(2-methoxyethyl)-2H-indazol-5-yl)-3-methyl-3,7-dihydro-4H-pyrrolo[2,3-d]pyrimidin-4-one], the 50% inhibitory concentration (IC50) on SHP2 (Table 20) worked out at 5 nM; in assay [1] (setting [4]), 0.071 µM.

With `CC(C)N[C@@H]1C[C@@H]2CC[C@H]1N2c1nc2[nH]nc(-c3ccc4nn(C)c(Cl)c4c3Cl)c2c(=O)n1C` [Example 179, 3-(3,4-Dichloro-2-methyl-2H-indazol-5-yl)-6-((1R,2R,4S)-2-(isopropylamino)-7-azabicyclo[2.2.1]heptan-7-yl)-5-methyl-1,5-dihydro-4H-pyrazolo[3,4-d]pyrimidin-4-one], the IC50 against SHP2 (Table 20) worked out at 150 nM; in assay [1] (setting [4]), 2.1 µM.
